Reference: patent US6849596B1, “Regulatory/unfolding peptides of ezrin” (priority 1999, dated 2005)

Key:
[1] = test system: transplanted sarcoma of the uterus SM-322; assay: Transplanted mouse sarcoma SM-322 model; type: in vivo, CBA mice; settings: for Percent decrease in tumour volume relative to control: SM-322
Description: Anticancer Activity of Hepreceptor Peptides on the Growth of Transplanted Sarcoma of the Uterus SM-322 and on Cancer of the Uterine Cervix CUS-5 Performed in CBA Mice Using Rupe312 and Rupe414 as Examples Transplanted mouse sarcoma SM-322 model (endothelial tumour). Primary tumours of the uterus were induced in female mice using 1.2 dimethylhydrazine. A few primary tumours were transplanted into syngeneic mice. The first visible nodules started to appear at the point of transplation after 4 days. The life expectancy of the mice with transplanted tumours was 22-24 days. […] The tumours were introduced as a 0.5 ml of tumour suspension (1 g tumour per 10 ml of Igla medium) and ten mice used in each treatment group. […] The average percent decrease of tumour volume relative to the control group was recorded at three time points. The longevity of the mice in the treatment groups and control groups was compared and the histology of the tumours between control and treatment groups was compared.

[2] = test system: transplanted cervical cancer CUC-5; assay: Transplanted mouse cervical cancer model CUC-5; type: in vivo, CBA mice; settings: for Percent decrease in tumour volume relative to control / Days of life expectancy: CUC-5; for Days of life expectancy: control 47-76
Description: Anticancer Activity of Hepreceptor Peptides on the Growth of Transplanted Sarcoma of the Uterus SM-322 and on Cancer of the Uterine Cervix CUS-5 Performed in CBA Mice Using Rupe312 and Rupe414 as Examples
Transplanted mouse cervical cancer model CUC-5 (epithelial tumour)
Primary tumours were induced in female mice using methylcholantrene. A few primary turnouts were then auto-transplanted into the uterine cervix. The life expectancy of mice with transplanted tumours was 43 days.
CBA female mice weighed 21.4=/−1.2 g. and were 2-3 months old. The tumours were introduced as a 0.5 ml of tumour suspension (1 g tumour per 10 ml of Igla medium) and ten mice used in each treatment group.
Lyophylised peptide were dissolved in sterile physiological saline immediately before use in three concentrations. 0.5 ml of solution was injected twice weekly into the peritoneum of the mice for the duration of the experiment. Three different concentrations of peptide were used leading to three final doses per injection per mouse of 10, 1.0 and 0.1 micrograms.
The average percent decrease of tumour volume relative to the control group was recorded at three time points. The longevity of the mice in the treatment groups and control groups was compared and the histology of the tumours between control and treatment groups was compared.

[3] = 0.1 Microg/mouse IP twice weekly, Day 8
[4] = 0.1 Microg/mouse IP twice weekly, Day 12
[5] = 1 Microg/mouse IP twice weekly, Day 8
[6] = 1 Microg/mouse IP twice weekly, Day 12
[7] = 10 Microg/mouse IP twice weekly, Day 8
[8] = 10 Microg/mouse IP twice weekly, Day 12

KKRRETVERE (Hepreceptor peptide) [Rupe312]
Percent decrease in tumour volume relative to control [1, 3]: 61%
Percent decrease in tumour volume relative to control [1, 4]: 34%
Percent decrease in tumour volume relative to control ([1]; 0.1 Microg/mouse IP twice weekly, Day 15): 59%
Percent decrease in tumour volume relative to control [1, 5]: 67%
Percent decrease in tumour volume relative to control [1, 6]: 32%
Percent decrease in tumour volume relative to control ([1]; 1 Microg/mouse IP twice weekly, Day 15): 38%
Percent decrease in tumour volume relative to control [1, 7]: 63%
Percent decrease in tumour volume relative to control [1, 8]: 54%
Percent decrease in tumour volume relative to control ([1]; 10 Microg/mouse IP twice weekly, Day 15): 27%
histology of the tumours ([1]; both models (SM-322 and CUC-5)): non bleeding ulcerous destruction of the centre of tumours
Percent decrease in tumour volume relative to control [2, 3]: 50%
Percent decrease in tumour volume relative to control [2, 4]: 18%
Percent decrease in tumour volume relative to control ([2]; 0.1 Microg/mouse IP twice weekly, Day 19): 45%
Days of life expectancy ([2]; 0.1 Microg/mouse IP twice weekly): 42 to 76 days
Percent decrease in tumour volume relative to control [2, 5]: 50%
Percent decrease in tumour volume relative to control [2, 6]: 26%
Percent decrease in tumour volume relative to control ([2]; 1 Microg/mouse IP twice weekly, Day 19): 49%
Days of life expectancy ([2]; 1 Microg/mouse IP twice weekly): 47 to 76 days
Percent decrease in tumour volume relative to control [2, 7]: 50%
Percent decrease in tumour volume relative to control [2, 8]: 25%
Percent decrease in tumour volume relative to control ([2]; 10 Microg/mouse IP twice weekly, Day 19): 49%
Days of life expectancy ([2]; 10 Microg/mouse IP twice weekly): 48 to 76 days
change in life expectancy ([2]; slower growing transplanted cervical cancer): no significant increase (or decrease) in life expectancy was detected
